In patent US9932381B2, “Exendin-4 derivatives as selective glucagon receptor agonists” (priority 2014, dated 2018):

How the values were obtained:
blood glucose = assay: Blood glucose profile in normoglycemic Beagle dogs; assay type: in vivo, male normoglycemic Beagle dogs; conditions: for effect on blood glucose relative to human glucagon: s.c. injection; for induction of a blood glucose response, SEQ. ID 5 vs. SEQ. ID 6: normoglycemic dogs
Experimental: Male normoglycemic Beagle dogs were fasted overnight before and during the entire experiment. The animals were randomized to groups of n=6 per group. […] The injection solutions were prepared freshly prior to the experiment. The test compound was administered as a single injection via three different routes (s.c., i.m. and i.v.) at doses of 1-100 μg/kg. […] Blood glucose was determined enzymatically (hexokinase method) from whole blood, insulin was analyzed from K-EDTA plasma with a dog-specific ELISA assay.

hepatic glycogenolysis = assay: Blood glucose profile in anesthetized rats; assay type: in vivo, male Wistar rats; conditions: for effect on blood glucose: 10 to 30 μg/kg s.c.
Experimental: The method aimed to study a test compound on the process of hepatic glycogenolysis. The rats had free access to food until the start of the experiment. […] The effect of GCG-mimetic on hepatic glycogenolysis and the subsequent hyperglycemic peak in the blood was compared to the effect obtained with a subcutaneous bolus injection of GCG at a dose of 30 μg/kg.
Rats were anaesthetized with an intraperitoneal injection of pentobarbital sodium (60 mg/kg) and ketamine (10 mg/kg) and tracheotomized. Anesthesia was maintained for up to 5 hours by subcutaneous infusion of pentobarbital sodium (adjusted to the anesthetic depth of the individual animal; about 24 mg/kg/h). Body temperature was monitored with a rectal probe thermometer, and temperature was maintained at 37° C. by means of a heated surgical table. Blood samples for glucose analysis (10 μl) were obtained from the tip of the tail every 15 minutes. The rats were allowed to stabilize their blood glucose levels after surgery for up to 2 hours. Then, GCG as reference compound, or the test compound were administered subcutaneously. For GCG a dose of 30 μg/kg was used to induce hepatic glycogenolysis.

[1] = target: T1, human GLP-1 receptor (hGLP-1 R) (Homo sapiens, UniProt P43220); assay: cAMP response (HTRF) of HEK-293 cells stably expressing human GLP-1 receptor; assay type: cell-based; conditions: Table 4
T1 construct: expressed in transfected cells; host or cells: HEK-293
Outline: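 Detached HEK-293 cells were suspended in HBSS with 20 mM HEPES, 0.1% BSA and 2 mM IBMX, then exposed to compound for 30 min at room temperature. cAMP was read by HTRF (665/620 nm ratio) after 1 h with detection reagents in lysis buffer. EC50 is the concentration giving 50% of maximal activation.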

[2] = Solubility testing of exendin-4 derivatives (HPLC-UV of supernatant); assay type: physicochemical; conditions: pH 7.4
Experimental: Prior to the testing of solubility and stability of a peptide batch, its content was determined. Therefore, two parameters were investigated, its purity (HPLC-UV) and the amount of salt load of the batch (ion chromatography).
HPLC-UV was performed after 2 h of gentle agitation from the supernatant, which was obtained by 20 min of centrifugation at 4000 rpm.

T1 sequence (P43220 24-463): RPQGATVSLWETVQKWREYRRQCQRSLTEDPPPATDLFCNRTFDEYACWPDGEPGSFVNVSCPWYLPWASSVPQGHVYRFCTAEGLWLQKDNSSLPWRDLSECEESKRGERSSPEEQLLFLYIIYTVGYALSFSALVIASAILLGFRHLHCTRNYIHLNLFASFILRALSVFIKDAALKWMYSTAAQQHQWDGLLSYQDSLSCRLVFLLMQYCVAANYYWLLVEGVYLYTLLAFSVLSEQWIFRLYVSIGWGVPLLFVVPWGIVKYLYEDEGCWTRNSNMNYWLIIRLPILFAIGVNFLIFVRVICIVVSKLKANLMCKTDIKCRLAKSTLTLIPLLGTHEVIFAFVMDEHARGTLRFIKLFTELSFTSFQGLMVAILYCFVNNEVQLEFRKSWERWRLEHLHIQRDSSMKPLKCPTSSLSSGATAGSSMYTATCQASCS

EC50 [1] [nM]	solubility at 2 h [2] [µg/mL]	SMILES	effect on blood glucose relative to human glucagon (blood glucose; dog)	induction of a blood glucose response, SEQ. ID 5 vs. SEQ. ID 6 (blood glucose; s.c.)	blood glucose excursion compared to 30 μg/kg GCG (hepatic glycogenolysis; 10 μg/kg s.c.)	time of blood glucose peak after injection (hepatic glycogenolysis; 10 μg/kg s.c.) [min]	time of blood glucose peak after injection (hepatic glycogenolysis; 30 μg/kg s.c.) [min]	effect on blood glucose (hepatic glycogenolysis)	peak increase of blood glucose (blood glucose; 10 μg/kg s.c., dog) [mmol/L]	subcutaneous versus intramuscular injection (blood glucose; dog)	glucose excursion at higher doses (blood glucose; doses beyond 10 μg/kg s.c., dog)	duration of the glucose response (blood glucose; s.c., dog, versus human glucagon)	activity by route of administration (blood glucose; subcutaneous, intramuscular and intravenous injection, dog)	blood glucose excursion compared to 30 μg/kg GCG (hepatic glycogenolysis; 20 μg/kg s.c.)	time of blood glucose peak after injection (hepatic glycogenolysis; 20 μg/kg s.c.) [min]
9.3	> 10000	CC[C@H](C)[C@H](NC(=O)[C@H](Cc1ccccc1)NC(=O)[C@H](CCC(=O)O)NC(=O)[C@H](CCC(N)=O)NC(=O)[C@H](C)NC(=O)[C@H](CCCNC(=N)N)NC(=O)[C@H](CCCNC(=N)N)NC(=O)[C@H](CO)NC(=O)[C@H](CCC(=O)O)NC(=O)[C@H](CC(C)C)NC(=O)[C@H](CCC(N)=O)NC(=O)[C@H](CCCCN)NC(=O)[C@H](CO)NC(=O)[C@H](Cc1ccc(O)cc1)NC(=O)[C@H](CC(=O)O)NC(=O)[C@H](CO)NC(=O)[C@@H](NC(=O)[C@H](Cc1ccccc1)NC(=O)[C@@H](NC(=O)CNC(=O)[C@H](CCC(N)=O)NC(=O)[C@H](CO)NC(=O)[C@@H](N)Cc1cscn1)[C@@H](C)O)[C@@H](C)O)C(=O)N[C@@H](CCC(=O)O)C(=O)N[C@@H](Cc1c[nH]c2ccccc12)C(=O)N[C@@H](CC(C)C)C(=O)N[C@@H](CC(C)C)C(=O)N[C@@H](C)C(=O)N[C@H](C(=O)NCC(=O)N1CCC[C@H]1C(=O)N[C@@H](CCC(=O)O)C(=O)N[C@@H](CO)C(=O)NCC(=O)N[C@@H](C)C(=O)N1CCC[C@H]1C(=O)N1CCC[C@H]1C(=O)N1CCC[C@H]1C(=O)N[C@@H](CO)C(=O)O)[C@@H](C)O [SEQ ID NO 6, Tza-SQGTFTSDYSKQLESRRAQEFIEWLLATGPESGAPPPS-OH]	mimicked the effect of human glucagon on blood glucose	similarly active	more powerful blood glucose excursion	30	60	dose-dependent increase of blood glucose	–	–	–	–	–	–	–
2.19	> 10000	CC[C@H](C)[C@H](NC(=O)[C@H](Cc1ccccc1)NC(=O)[C@H](CCC(=O)O)NC(=O)[C@H](CCC(N)=O)NC(=O)[C@H](C)NC(=O)[C@H](CCCNC(=N)N)NC(=O)[C@H](CCCNC(=N)N)NC(=O)[C@H](CO)NC(=O)[C@H](CCC(=O)O)NC(=O)[C@H](CC(C)C)NC(=O)[C@H](CCC(N)=O)NC(=O)[C@H](CCCCN)NC(=O)[C@H](CO)NC(=O)[C@H](Cc1ccc(O)cc1)NC(=O)[C@H](CC(=O)O)NC(=O)[C@H](CO)NC(=O)[C@@H](NC(=O)[C@H](Cc1ccccc1)NC(=O)[C@@H](NC(=O)CNC(=O)[C@H](CCC(N)=O)NC(=O)[C@H](CO)NC(=O)[C@@H](N)Cc1cscn1)[C@@H](C)O)[C@@H](C)O)C(=O)N[C@@H](CCC(=O)O)C(=O)N[C@@H](Cc1c[nH]c2ccccc12)C(=O)N[C@@H](CC(C)C)C(=O)N[C@@H](CC(C)C)C(=O)N[C@@H](C)C(=O)NCC(=O)NCC(=O)N1CCC[C@H]1C(=O)N[C@@H](CCC(=O)O)C(=O)N[C@@H](CO)C(=O)NCC(=O)N[C@@H](C)C(=O)N1CCC[C@H]1C(=O)N1CCC[C@H]1C(=O)N1CCC[C@H]1C(=O)N[C@@H](CO)C(=O)O [SEQ ID NO 5, Tza-SQGTFTSDYSKQLESRRAQEFIEWLLAGGPESGAPPPS-OH]	mimicked the effect of human glucagon on blood glucose	similarly active	–	30	90	dose-dependent increase of blood glucose	3.5 to 4	no difference in activity and blood glucose time-action profile	did no longer result in higher glucose excursion	slightly longer	active through all parenteral routes	nearly comparable shape of blood glucose excursion	45
